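Cultured in 96-well plates, cells were exposed to test compound for 48 hours across five concentrations. The concentration for 50% growth inhibition is given as GI50. TGI marks complete inhibition of growth.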
Assays:
Experiment in all cases: NCI tumour cell line growth inhibition, 48 h
SK-MEL-28 melanoma = test system: SK-MEL-28 melanoma
SF-268 CNS = test system: SF-268 CNS
HCT-116 colon = test system: HCT-116 colon
UACC-257 melanoma = test system: UACC-257 melanoma
LOX IMVI melanoma = test system: LOX IMVI melanoma
K-562 leukemia = test system: K-562 leukemia
SF-539 CNS = test system: SF-539 CNS
M14 melanoma = test system: M14 melanoma
HL-60(TB) leukemia = test system: HL-60(TB) leukemia

Row | SMILES | TGI (SK-MEL-28 melanoma) [µM] | TGI (SF-268 CNS) [µM] | TGI (HCT-116 colon) [µM] | TGI (UACC-257 melanoma) [µM] | TGI (LOX IMVI melanoma) [µM] | TGI (K-562 leukemia) [µM] | TGI (SF-539 CNS) [µM] | TGI (M14 melanoma) [µM] | TGI (HL-60(TB) leukemia) [µM] | GI50 (SK-MEL-28 melanoma) [µM] | GI50 (SF-268 CNS) [µM] | GI50 (HCT-116 colon) [µM] | GI50 (UACC-257 melanoma) [µM] | GI50 (LOX IMVI melanoma) [µM] | GI50 (K-562 leukemia) [µM] | GI50 (M14 melanoma) [µM] | GI50 (HL-60(TB) leukemia) [µM]
1 | COc1ccc(NC(=O)/C(Cc2cc(=O)oc3cc(O)ccc23)=N\NC(C)(C)C)c(OC)c1 | > 100 | > 100 | > 100 | > 100 | > 100 | > 100 | > 100 | > 100 | > 100 | – | – | – | – | – | – | – | –
2 | [N-]=[N+]=N[C@H]1C[C@@H](CO)O[C@H]1n1cnc2c(N)ncnc21 | > 100 | > 100 | > 100 | > 100 | > 100 | – | > 100 | > 100 | > 100 | – | – | – | – | – | – | – | –
3 | NC(=O)C12CC3CC(CC(F)(C3)C1)C2 | > 100 | – | > 100 | > 100 | > 100 | > 100 | > 100 | > 100 | > 100 | – | – | – | – | – | – | – | –
4 | Cc1[nH]c2ccccc2c1C(=O)/C=C/c1ccccc1O | > 100 | > 100 | > 100 | > 100 | > 100 | > 100 | – | > 100 | > 100 | – | – | – | – | – | – | – | –
5 | CC1c2c(Cl)nc3ccccc3c2Oc2c1c(Cl)nc1ccccc21 | > 100 | > 100 | > 100 | > 100 | > 100 | > 100 | > 100 | – | > 100 | – | – | – | – | – | – | – | –
6 | O=C(/C=C/c1cccc2ccccc12)c1ccccc1Cl | 34 | 36.5 | 20.9 | 31.3 | – | > 100 | 31.9 | 29.3 | 19.4 | – | – | – | – | – | – | – | –
7 | CC1CN(C(=O)CN2CCC(CCCCN(C)C)CC2)c2ccccc2NC1=O (stereo not given) | > 100 | > 100 | > 100 | > 100 | > 100 | > 100 | – | > 100 | > 100 | – | – | – | – | – | – | – | –
8 | COC1(OC)C(N(C)C)=C(Cl)C(=O)/C1=C/C=O | > 100 | > 100 | > 100 | > 100 | > 100 | > 100 | – | > 100 | > 100 | – | – | – | – | – | – | – | –
9 | Cc1cc(Cl)ccc1NC(=O)C(=O)Cc1nc2ccccc2o1 | > 100 | > 100 | > 100 | > 100 | > 100 | > 100 | > 100 | > 100 | > 100 | – | – | – | – | – | – | – | –
10 | CCOC(=O)C(=[N+]=[N-])[Si](C)(C)C | 45.6 | 59.7 | > 100 | > 100 | > 100 | – | > 100 | – | – | – | – | – | – | – | – | – | –
11 | CC(=O)c1sc(Nc2nnc(-c3ccc(-c4nnc(Nc5nc(C)c(C(C)=O)s5)o4)cc3)o2)nc1C | > 100 | > 100 | > 100 | > 100 | > 100 | > 100 | – | > 100 | > 100 | – | – | – | – | – | – | – | –
12 | CCOc1ccc(NC(=O)CC#N)cc1 | > 100 | > 100 | > 100 | > 100 | > 100 | > 100 | – | > 100 | > 100 | – | – | – | – | – | – | – | –
13 | COc1cccc(C2=NC(C(C)C)CO2)c1 (stereo not given) | > 100 | > 100 | – | > 100 | > 100 | > 100 | > 100 | > 100 | > 100 | – | – | – | – | – | – | – | –
14 | Cc1cc(N(CCC#N)CCC#N)ccc1N=Nc1ccc(C(=O)O)cc1 | > 100 | > 100 | – | > 100 | > 100 | – | > 100 | > 100 | – | – | – | – | – | – | – | – | –
15 | C1CN2CCN3CCN4CCN1[P+]243 | > 100 | – | > 100 | > 100 | > 100 | > 100 | > 100 | > 100 | > 100 | – | – | – | – | – | – | – | –
16 | CC(=O)Oc1c2c(c(O)c3ccccc13)C(n1cnc3c(ncn3C3OC(CO)C4OC(C)(C)OC43)c1=N)CCC2 (stereo not given) | 31.8 | 30.7 | – | 21.8 | 21 | 30 | 32.2 | – | 22.3 | – | – | – | – | – | – | – | –
17 | CCC[CH2][Sn]([Cl])([CH2]CCC)[CH2]CCC | 0.269 | 0.314 | 0.188 | 0.248 | 0.234 | 0.204 | – | 0.308 | 0.351 | 0.139 | 0.148 | 0.0569 | 0.108 | 0.109 | 0.0411 | 0.162 | 0.121
18 | COc1ccc(CC2NCCc3c2[nH]c2ccccc32)cc1 (stereo not given) | > 100 | > 100 | > 100 | – | > 100 | > 100 | > 100 | > 100 | 53.5 | – | – | – | – | – | – | – | –
19 | CCCNC(=S)NNC(=O)CSc1nc(-c2ccccc2)c(-c2ccccc2)[nH]1 | > 100 | > 100 | > 100 | > 100 | > 100 | – | > 100 | 89.6 | > 100 | – | – | – | – | – | – | – | –
20 | O=C(CCc1n[nH]c(=S)o1)Nc1ccccc1C(F)(F)F | > 100 | > 100 | – | > 100 | – | > 100 | > 100 | > 100 | > 100 | – | – | – | – | – | – | – | –
21 | O=C1/C(=C/c2ccc3c(c2)OCO3)SC2C=Nc3ccccc3N12 (stereo not given) | > 100 | > 100 | > 100 | > 100 | – | – | > 100 | > 100 | – | – | – | – | – | – | – | – | –

— PubChem BioAssay (NCI)
